According to patent US5994334A, “Androgen synthesis inhibitors” (priority 1997, dated 1999):
Like-named read-outs stand apart in the source and are kept apart here.

Tests used:
[1] = molecular target: T1, Human Prostatic 5α-Reductase (Homo sapiens, UniProt P31213); test: Inhibition of human prostatic 5α-reductase (prostatic microsomes, [3H]testosterone); settings: for inhibition at 0.1 µM: read-out: % Inhibition of 5α-reductase, [I] 100 nM; for inhibition at 0.4 µM: read-out: % Inhibition of 5α-reductase, [I] 400 nM; for inhibition at 0.01 µM: read-out: % Inhibition of 5α-reductase, [I] 10 nM
T1 sequence (P31213 1-254): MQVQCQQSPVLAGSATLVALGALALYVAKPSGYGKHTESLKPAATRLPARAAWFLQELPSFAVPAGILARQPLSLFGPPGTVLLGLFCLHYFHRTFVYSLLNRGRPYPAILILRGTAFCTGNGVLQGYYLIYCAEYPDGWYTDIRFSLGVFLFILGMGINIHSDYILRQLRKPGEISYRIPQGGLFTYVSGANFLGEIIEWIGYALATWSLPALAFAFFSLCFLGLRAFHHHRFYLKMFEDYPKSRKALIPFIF

[2] = molecular target: T2, Human Testicular 17α-Hydroxylase (Homo sapiens, UniProt P05093); test: Inhibition of human testicular 17α-hydroxylase (pregnenolone substrate, testicular microsomes); type: biochemical; settings: for inhibition at 0.1 µM: read-out: % Inhibition 17α-hydroxylase, [I] = 100 nM; for inhibition at 0.4 µM: read-out: % Inhibition 17α-hydroxylase, [I] = 400 nM
T2 construct: incubating human testicular microsomes; from tissue; host or cells: human testis, microsomes
T2 sequence (P05093 1-508): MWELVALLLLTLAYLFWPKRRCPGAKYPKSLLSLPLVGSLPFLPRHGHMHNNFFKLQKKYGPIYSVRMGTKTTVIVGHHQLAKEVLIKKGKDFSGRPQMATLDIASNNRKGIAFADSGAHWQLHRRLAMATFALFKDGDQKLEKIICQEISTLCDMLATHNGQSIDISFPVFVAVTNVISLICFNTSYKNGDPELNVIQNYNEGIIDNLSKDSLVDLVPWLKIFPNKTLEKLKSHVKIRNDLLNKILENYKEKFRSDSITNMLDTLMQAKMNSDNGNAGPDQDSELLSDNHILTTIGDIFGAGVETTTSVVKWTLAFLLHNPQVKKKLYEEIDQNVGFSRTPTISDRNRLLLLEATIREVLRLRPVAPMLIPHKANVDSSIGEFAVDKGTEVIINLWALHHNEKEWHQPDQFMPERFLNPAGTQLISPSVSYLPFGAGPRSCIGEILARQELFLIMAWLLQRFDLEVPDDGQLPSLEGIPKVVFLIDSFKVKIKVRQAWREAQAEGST
Protocol: (§1) The conversion of radiolabeled pregnenolone to 17α-hydroxypregnenolone and DHEA by 17α-hydroxylase/C17,20 -lyase was measured by incubating human testicular microsomes with different concentration of test compounds. Reverse phase HPLC was used to separate and accurately quantify the amount of substrate and metabolites. The 17α-hydroxylase and C17,20 -lyase activities were calculated separately. The activity of 17α-hydroxylase was calculated from the conversion of pregnenolone to 17α-hydroxypregnenolone and DHEA and the activity of C17,20 -lyase was based on the conversion of pregnenolone to DHEA. Although 17α-hydroxypregnenolone is the substrate converted to DHEA by C17,20 -lyase, it has been reported that this 17α-hydroxy intermediate is not released from the enzyme binding site during conversion (Nakajin et al., 1981a,b). Also, there are species differences in substrate requirements. Pregnenolone is the natural substrate rather than progesterone for human testicular 17α-hydroxylase and C17,20 -lyase. Therefore, pregnenolone was used as substrate for measuring the activity of this enzyme complex.

[3] = molecular target: T3, Human Testicular C17,20-lyase (Homo sapiens, UniProt P05093); test: Inhibition of human testicular C17,20-lyase (pregnenolone substrate, testicular microsomes); type: biochemical; settings: for inhibition at 0.1 µM: read-out: % Inhibition C17,20-lyase, [I] = 100 nM; for inhibition at 0.4 µM: read-out: % Inhibition C17,20-lyase, [I] = 400 nM
T3 construct: incubating human testicular microsomes; from tissue; host or cells: human testis, microsomes
T3 sequence (P05093 1-508): T2 sequence (P05093 1-508)
Protocol: as §1

[4] = molecular target: T4, human 17α-hydroxylase/C17,20-lyase (Homo sapiens, UniProt P05093); test: Inhibition of human testicular 17α-hydroxylase/C17,20-lyase (enzyme complex as a whole); type: biochemical; settings: NI = no inhibition
T4 construct: incubating human testicular microsomes; from tissue; host or cells: human testis, microsomes
T4 sequence (P05093 1-508): T2 sequence (P05093 1-508)
Protocol: as §1

[5] = Table 1, NI = no inhibition, read-out: IC50 17α-OHase
[6] = Table 1, NI = no inhibition, CI = complete inhibition, read-out: IC50 C17,20 lyase

C=C1CC2C3CCC(OC(C)=O)C3(C)CCC2C2(C)CCC(=O)CC12 [Compound L-14, 17β-Acetoxy-6-methylene-5α-androst-3-one]
inhibition at 0.1 µM [1]: 5.77%
inhibition at 0.4 µM [1]: 11.4%

C[C@H](O)[C@H]1CC[C@H]2[C@@H]3CC=C4C[C@@H](O)CC[C@]4(C)[C@H]3CC[C@]12C [Compound I-19]
IC50 ([2]; IC50 17α-OHase): 720 nM
IC50 ([3]; IC50 C17,20 lyase): 510 nM
inhibition of 5α-reductase (in words) ([1]; NI = no inhibition): neither showed activity against 5α-reductase

CC(=O)[C@@]12O[C@@H]1C[C@H]1[C@@H]3CCC4=CC(=O)CC[C@]4(C)[C@H]3CC[C@@]12C [Compound I-18]
IC50 [2, 5]: 480 nM
IC50 [3, 6]: 800 nM
inhibition at 0.01 µM [1]: 15.1%
inhibition at 0.1 µM [1]: 76.2%

CC1N[C@@]12CC[C@H]1[C@@H]3CC=C4C[C@@H](O)CC[C@]4(C)[C@H]3CC[C@@]12C (stereo partly drawn) [Compound L-21]
inhibition at 0.1 µM [2]: 8.47%
inhibition at 0.4 µM [2]: 23.7%
inhibition at 0.1 µM [3]: 29.1%
inhibition at 0.4 µM [3]: 52%

CC1N[C@]12CC[C@H]1[C@@H]3CC=C4C[C@@H](O)CC[C@]4(C)[C@H]3CC[C@@]12C (stereo partly drawn) [Compound L-22]
inhibition at 0.1 µM [2]: 0%
inhibition at 0.4 µM [2]: 0%
inhibition at 0.1 µM [3]: 3.33%
inhibition at 0.4 µM [3]: 9.99%

C[C@]12CC[C@H](O)CC1=CC[C@@H]1[C@@H]2CC[C@@]2(C)[C@H]1C[C@H]1O[C@]12c1c[nH]cn1 [Compound I-51]
IC50 [2, 5]: 430 nM
IC50 ([2]; first figure of pair, read-out: IC50 17α-hydroxylase): 431 nM
IC50 [3, 6]: 100 nM
IC50 ([3]; second figure of pair, read-out: IC50 C17,20-lyase): 98 nM

C[C@H](C#N)[C@H]1CC[C@H]2[C@@H]3CCC4=CC(=O)CC[C@]4(C)[C@H]3CC[C@]12C [Compound I-32]
inhibition at 0.01 µM [1]: 21%
inhibition at 0.1 µM [1]: 79.2%

C[C@]12CC[C@H]3[C@@H](CC[C@]45CC(=O)C=C[C@]34C5)[C@@H]1CCC2=O [Compound L-15, 5,19β-cycloandrost-1-ene-3,17-dione]
inhibition at 0.1 µM ([2]; 100 nM, first figure of pair): 7.25%
inhibition at 0.1 µM ([3]; 100 nM, second figure of pair): 28.8%
inhibition at 0.1 µM [1]: 23.3%
inhibition at 0.4 µM [1]: 60.9%

CC(=NO)[C@H]1CC[C@H]2[C@@H]3CC=C4C[C@@H](O)CC[C@]4(C)[C@H]3CC[C@]12C [Compound I-1]
inhibition of 17α-hydroxylase/C17,20-lyase (in words) [4]: potent inhibition

CC(C#N)=C1CC[C@H]2[C@@H]3CCC4=CC(=O)CC[C@]4(C)[C@H]3CC[C@]12C [Compound I-26]
inhibition of 17α-hydroxylase/C17,20-lyase (in words) [4]: did not contribute to inhibition
inhibition at 0.01 µM [1]: 5.21%
inhibition at 0.1 µM [1]: 71.8%

CCOC(=O)C1=CC[C@H]2[C@@H]3CC=C4C[C@@H](O)CC[C@]4(C)[C@H]3CC[C@]12C [Compound I-53]
IC50 [2, 5]: 3040 nM
IC50 [3, 6]: 2450 nM

CN(C)N=C1CC[C@H]2[C@@H]3CC=C4C[C@@H](O)CC[C@]4(C)[C@H]3CC[C@]12C [Compound I-56]
IC50 [2, 5]: 4200 nM
IC50 [3, 6]: 2400 nM

CO[C@@H]1[C@]23CC[C@@H]4[C@H](CC[C@]5(C)C(=O)CC[C@@H]45)[C@]12CCC(=O)[C@H]3C [Compound L-23, 4α-methyl-19-(S)-methoxy-5,19β-cycloandrost-3,17-dione]
inhibition at 0.1 µM [1]: 0%
inhibition at 0.4 µM [1]: 16.1%

CC(=NN)[C@H]1CC[C@H]2[C@@H]3CC=C4C[C@@H](O)CC[C@]4(C)[C@H]3CC[C@]12C [Compound I-12]
inhibition of 17α-hydroxylase/C17,20-lyase (in words) [4]: poor inhibition

C[C@H](C=NN(C)C)[C@H]1CC[C@H]2[C@@H]3CCC4=CC(=O)CC[C@]4(C)[C@H]3CC[C@]12C [Compound I-15]
inhibition of 17α-hydroxylase/C17,20-lyase (in words) [4]: devoid of inhibitory activity
inhibition at 0.01 µM [1]: 16.4%
inhibition at 0.1 µM [1]: 74.9%
